Measured values taken from US8920775B2, “Loading technique for preparing radionuclide containing nanoparticles” (Technical University of Denmark, priority 2009, dated 2014).

Key:
[1] = In vivo PET/CT biodistribution and blood concentration-time profile; parameters: species or system NMRI nude mice; details: i.v., mice, PET ROI on left ventricle
Description: Human colon adenocarcinoma (HT29) tumor cells (2×10^6 cells) were inoculated in the left and right flank of female NMRI (Naval Medical Research Institute) nude mice and allowed to grow 4 weeks in the mice to establish the malignant solid tumor. ^64Cu-liposomes for in vivo studies were prepared as described above and consisted of DSPC/CHOL/DSPE-PEG-2000 in the molar ratio 55:40:5 and contained the chelating agent (DOTA) in a concentration of 10 mM, and at a pH of 4.0 in the interior of the liposomes. […]
After i.v. administration of ^64Cu-liposome or ^64Cu-DOTA the animals were subject to micro-PET/CT imaging at different time points: 1, 4, 12 and 24 h. With PET imaging the amount of radioactivity specifically sequestered in a region of interest (ROI) on an image can be calculated allowing direct quantitative determinations based on differences in signal intensity. After PET- and CT images were reconstructed the images were fused with Inveon Software (Siemens), and PET data were analyzed by defining ROIs on selected tissues. PET values are expressed as mean Becquerel ml^−1 (Bq ml^−1), and ROIs were drawn manually over each organ of interest. […]
FIG. 11 is a time-activity curve (TAC) illustrating the blood concentration-time pro-file of ^64Cu-liposome and ^64Cu-DOTA. […] The total injected activity dose was measured by drawing one ROI around the animal 4 min post-injection. […]

[2] = ITC: extraction of Cu(II) from 2-hydroxyquinoline by DOTA (Examples I); assay type: binding; details: Milli-Q water pH 7.4, 25° C.
Description: Isothermal titration calorimetry (ITC) measurements are designed to obtain primarily the enthalpy of each complex formation and their stoichiometries. The heats of each reaction are determined by integration of the peaks observed. After the contribution from the heat of dilution of each injection is subtracted, the heat is plotted against the molar ratio of the measured components. The binding constant (Ka, interchangeably referred to as the ligand exchange constant, K), enthalpy of binding) (ΔH^0), and stoichiometry (n) of the formation of complex are determined by fitting the binding isotherm against the binding equation using an independent binding model.
The exchange of 2-hydroxyquinoline with DOTA are shown as heat spike plots (A) and integrated heat plots (B). Experimental conditions: 0.5 mM Cu(2-hydroxyquinoine)2 is titrated with 10-μL injections of 5 mM DOTA. All solutions were prepared in Milli-Q water at pH=7.4.

[3] = ITC: ligand exchange of 2HQ with DOTA complexed to Cu(II) (Examples II); assay type: binding
[4] = ITC: ligand exchange of Cu(II) between 2HQ and chelates (Examples III, Table 2)
Description: Isothermal titration calorimetry (ITC) measurements were used to obtain the equilibrium constant (K, also referred to as the exchange constant) of the ligand exchange between the ionophore and the agent-entrapping compound, here a chelator. […] The ligand exchange was monitored by the heat of reaction from each injection in the ITC experiment as determined by peak integration. The ligand exchange constant (K) was determined by fitting the heat of reaction. The binding isotherm is defined by the equilibrium: Cu(2HQ)2+chelate ? Cu(chelate)+2(2HQ) (1)
The ITC measurements were carried out at 25° C. and 50° C. using isothermal titration calorimetry (iTC200, Micro-Cal, GE). The instrument was electrically calibrated by means of a standard electric pulse as recommended by the manufacturer. A 40 μL syringe was used for the titration, mixing was effected by stirring the syringe at 1000 rpm during equilibration and experiments. Typically, 20 injections of 2 μL each were performed with a 150 s interval between injections in a single titration. The reference cell of the calorimeter filled with water acts as a thermal reference to the sample cell. […] All solutions were degassed before titrations to reduce noise.
The ligand exchange constant (K) and the ligand exchange enthalpy (ΔH) are determined by as fitting parameters using a binding isotherm based on reaction scheme (1).

## O=C([O-])CN1CCN(CC(=O)[O-])CCN(CC(=O)O)CCN(CC(=O)O)CC1.[64Cu+2] [^64Cu-DOTA]
[1]
  blood clearance: cleared rapidly after administration through renal filtration

## O=C(O)CN1CCN(CC(=O)O)CCN(CC(=O)O)CCN(CC(=O)O)CC1 [DOTA, 1,4,7,10-tetraazacyclododecane-1,4,7,10-tetraacetic acid]
[2]
  binding affinity to Cu(II) compared with 2-hydroxyquinoline: much higher binding affinity to Cu(II) than 2-hydroxyquinoline
[3]; acetate buffer at pH 4.0, 25° C.
  exchange constant, K (Cu(2HQ)2 + DOTA): (1.0±0.3)·10^−2
[3]; pH 5.9 in MES buffer, 25° C.
  exchange constant, K (Cu(2HQ)2 + DOTA): (5.2±1.6)·10^−4
[4]; pH 4.0 at 25° C.
  Ligand exchange constant (K), exchange of Cu(II) from 2HQ to chelate: 1.3 × 10^−2
  ligand exchange enthalpy (ΔH): 3.8 kcal/mol
[4]; pH 4.0 at 50° C.
  Ligand exchange constant (K), exchange of Cu(II) from 2HQ to chelate: 8.7 × 10^−3
  ligand exchange enthalpy (ΔH): 4.0 kcal/mol
[4]; pH 5.9 at 25° C.
  Ligand exchange constant (K), exchange of Cu(II) from 2HQ to chelate: 6.1 × 10^−4
  ligand exchange enthalpy (ΔH): -8.0 kcal/mol
[4]; pH 5.9 at 50° C.
  Ligand exchange constant (K), exchange of Cu(II) from 2HQ to chelate: 1.0 × 10^−3
  ligand exchange enthalpy (ΔH): -6.3 kcal/mol

## O=P(O)(O)CN1CCN(CP(=O)(O)O)CCN(CP(=O)(O)O)CCN(CP(=O)(O)O)CC1 [DOTP, 1,4,7,10-tetraazacyclododecane-1,4,7,10-tetra(methanephosphonic acid)]
[4]; pH 4.0 at 25° C.
  Ligand exchange constant (K), exchange of Cu(II) from 2HQ to chelate: 2.5 × 10^−3
  ligand exchange enthalpy (ΔH): 2.4 kcal/mol
[4]; pH 4.0 at 50° C.
  Ligand exchange constant (K), exchange of Cu(II) from 2HQ to chelate: 2.9 × 10^−3
  ligand exchange enthalpy (ΔH): 3.4 kcal/mol

## O=C(O)CN1CCCN(CC(=O)O)CCN(CC(=O)O)CCCN(CC(=O)O)CC1 [TETA, 1,4,8,11-tetraazacyclotetradecane-1,4,8,11-tetraacetic acid]
[4]; pH 4.0 at 25° C.
  Ligand exchange constant (K), exchange of Cu(II) from 2HQ to chelate: 1.2 × 10^−4
  ligand exchange enthalpy (ΔH): 0.5 kcal/mol
[4]; pH 5.9 at 25° C.
  Ligand exchange constant (K), exchange of Cu(II) from 2HQ to chelate: 3.0 × 10^−3
  ligand exchange enthalpy (ΔH): -4.9 kcal/mol
[4]; pH 5.9 at 50° C.
  Ligand exchange constant (K), exchange of Cu(II) from 2HQ to chelate: 2.8 × 10^−2
  ligand exchange enthalpy (ΔH): -4.7 kcal/mol

## C1CNCCNCCNCCN1 [Cyclen, 1,4,7,10-tetraazacyclododecane]
[4]; pH 5.9 at 25° C.
  Ligand exchange constant (K), exchange of Cu(II) from 2HQ to chelate: ^
  ligand exchange enthalpy (ΔH): ^
[4]; pH 5.9 at 50° C.
  Ligand exchange constant (K), exchange of Cu(II) from 2HQ to chelate: 1.4 × 10^−3
  ligand exchange enthalpy (ΔH): -5.5 kcal/mol
